Data set [1] has as its system A549. Put plainly: Antitumour activity against human A549 cells xenografted in BALB/c mouse assessed as tumor growth inhibition at 50 mg/kg,iv administered for 3 weeks relative to control. It counts as functional. Particulars: A549, 504 h, read-out: TGI. (Xenograft models place foreign cells or tissue in a host animal.)
Data set [2] relates to A549. Put plainly: Antitumour activity against human A549 cells xenografted in BALB/c mouse assessed as tumor growth inhibition at 25 mg/kg,iv administered for 3 weeks relative to control. It counts as functional. Particulars: A549, 504 h, read-out: TGI.
Data set [3] concerns the target T1, Class 1 histone deacetylase (Homo sapiens) (UniProt Q13547+O15379+Q92769+Q9BY41). Put plainly: Inhibition of class 1 HDAC in human A549 cells assessed as increase in histone H3/H4 acetylation at 10 uM measured after 8 hrs by Western blot analysis. It counts as cell-based.
In data set [4] the target is T2, Protein deacetylase HDAC6 (Homo sapiens) (UniProt Q9UBN7).
T2 sequence (whole entry): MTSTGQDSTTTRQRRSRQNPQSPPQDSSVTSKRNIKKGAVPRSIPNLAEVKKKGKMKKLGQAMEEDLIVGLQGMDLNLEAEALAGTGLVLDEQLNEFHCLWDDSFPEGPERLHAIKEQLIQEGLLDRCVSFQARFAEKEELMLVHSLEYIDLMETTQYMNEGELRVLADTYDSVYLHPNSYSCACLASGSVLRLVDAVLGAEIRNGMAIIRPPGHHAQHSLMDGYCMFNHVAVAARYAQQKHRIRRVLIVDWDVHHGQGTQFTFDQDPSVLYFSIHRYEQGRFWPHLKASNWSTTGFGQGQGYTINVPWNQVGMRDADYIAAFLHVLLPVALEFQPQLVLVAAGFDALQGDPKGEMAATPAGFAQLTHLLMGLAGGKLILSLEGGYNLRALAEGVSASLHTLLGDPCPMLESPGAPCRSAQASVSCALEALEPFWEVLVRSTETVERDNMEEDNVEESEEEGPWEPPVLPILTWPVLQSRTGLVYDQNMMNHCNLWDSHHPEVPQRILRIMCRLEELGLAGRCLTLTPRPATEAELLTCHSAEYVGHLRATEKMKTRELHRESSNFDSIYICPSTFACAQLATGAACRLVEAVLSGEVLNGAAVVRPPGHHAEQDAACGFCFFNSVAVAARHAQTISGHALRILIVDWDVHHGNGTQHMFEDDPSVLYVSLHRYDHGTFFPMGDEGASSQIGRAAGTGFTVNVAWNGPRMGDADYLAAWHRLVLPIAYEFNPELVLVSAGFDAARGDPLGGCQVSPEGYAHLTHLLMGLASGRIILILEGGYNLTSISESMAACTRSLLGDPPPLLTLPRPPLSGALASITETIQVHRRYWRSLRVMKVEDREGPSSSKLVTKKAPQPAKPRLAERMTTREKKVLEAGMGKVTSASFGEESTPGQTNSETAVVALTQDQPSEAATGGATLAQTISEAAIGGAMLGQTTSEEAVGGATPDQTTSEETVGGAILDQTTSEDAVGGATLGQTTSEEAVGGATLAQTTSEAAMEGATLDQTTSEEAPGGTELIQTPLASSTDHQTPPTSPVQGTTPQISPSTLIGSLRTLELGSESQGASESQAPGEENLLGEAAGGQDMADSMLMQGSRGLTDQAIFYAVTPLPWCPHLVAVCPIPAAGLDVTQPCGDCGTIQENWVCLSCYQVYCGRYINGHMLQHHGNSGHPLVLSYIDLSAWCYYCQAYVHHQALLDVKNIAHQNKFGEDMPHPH
Nature of the data set: Inhibition of HDAC6 in human A549 cells assessed as increase in alpha tubulin acetylation at 10 uM measured after 8 hrs by Western blot analysis. It counts as cell-based. For orientation: In western blotting, separated proteins are transferred to a membrane and probed.

Data set [5] concerns the target T1, Class 1 histone deacetylase (Homo sapiens). Put plainly: Inhibition of class 1 HDAC in human A549 cells assessed as increase in histone H3/H4 acetylation measured after 24 hrs by Immunofluorescent assay. The class given is cell-based.
The subject of data set [6] is K562. Put plainly: Induction of apoptosis in human K562 cells assessed as downregulation of Bcl-2 protein at 10 uM measured after 8 hrs by Western blot analysis. The class given is functional, cell-based.
Data set [7] deals with K562. Put plainly: Induction of apoptosis in human K562 cells assessed as upregulation of BaX protein expression at 10 uM measured after 8 hrs by Western blot analysis. The class given is functional, cell-based.
Data set [8] concerns A549. Put plainly: Induction of cell cycle arrest in human A549 cells assessed as increase in accumulation at G1/G0 phase measured after 48 hrs by flow cytometry analysis. The class given is functional, cell-based. To be noted: dose 1-10 µM. For orientation: A flow cytometer gives signals particle by particle.
Data set [9] deals with K562. Put plainly: Induction of apoptosis in human K562 cells assessed as increased cleaved caspase 3 at 10 uM measured after 8 hrs by Western blot analysis. It counts as functional, cell-based.
Data set [10] in a line: Acute toxicity in BALB/c mouse assessed as effect on normal behaviour at up to 2000 mg/kg, po. To be noted: in vivo. The class given is organism-based.
Data set [11] is described as follows: Acute toxicity in BALB/c mouse assessed as effect on body weight at up to 2000 mg/kg, po. The class given is organism-based. To be noted: in vivo.
Data set [12] in a line: Acute toxicity in po dosed BALB/c mouse assessed as lethal dose. The class given is organism-based. To be noted: in vivo.
Data set [13] is described as follows: Acute toxicity in BALB/c mouse assessed as maximum tolerated dose. Particulars: in vivo.
The subject of data set [14] is A549. Put plainly: Antitumor activity against human A549 cells xenografted in BALB/c mouse assessed as reduction in tumor volume when administered intratumorally for 21 days. It counts as functional. Particulars: dose 0.75-1.5 mg, route it(Intratumoral), time 21.0 day.
Data set [15] deals with Mus musculus. Nature of the data set: Toxicity in BALB/c mouse xenografted with human A549 cells assessed as effect on body weight at 0.75 to 1.5 mg, IT(Intratumoral) measured after 21 days. To be noted: in vivo, other, 504 h, dose 0.75-1.5 mg, time 21 day. It counts as organism-based.
For data set [16], the system named is A549. Nature of the data set: Antitumor activity against human A549 cells xenografted in BALB/c mouse assessed as tumor growth inhibition at high dose when administered intratumorally for 21 days relative to control. The class given is functional. To be noted: route it(Intratumoral); time 21 day.
The subject of data set [17] is Mus musculus. Put plainly: Toxicity in BALB/c mouse xenografted with human A549 cells assessed as effect on body weight at 25 to 50 mg/kg, iv measured after 21 days. It counts as organism-based. Particulars: in vivo, 504 h, dose 25-50 mg/kg, time 21 day.
Data set [18] deals with Protein deacetylase HDAC6 (Mus musculus) (UniProt Q9Z2V5). Put plainly: In vivo inhibition of HDAC6 in BALB/c mouse xenografted with human A549 cells assessed as increase in alpha tubulin acetylation at 25 to 50 mg/kg, iv administered for 3 weeks by immunohistochemical analysis. It counts as functional, organism-based. To be noted: dose 25-50 mg/kg.
Data set [19] has as its system Mus musculus. Nature of the data set: In vivo inhibition of HDAC in BALB/c mouse xenografted with human A549 cells assessed as increase in H3 histone at 25 to 50 mg/kg, iv administered for 3 weeks by immunohistochemical analysis. The class given is functional, organism-based. Particulars: dose 25-50 mg/kg.

Each structure is given as a SMILES string. Active and inactive are the calls of the source. The calls are words filed in the database; no cut-off is given here.

T1 sequence (O15379 whole entry, looked up): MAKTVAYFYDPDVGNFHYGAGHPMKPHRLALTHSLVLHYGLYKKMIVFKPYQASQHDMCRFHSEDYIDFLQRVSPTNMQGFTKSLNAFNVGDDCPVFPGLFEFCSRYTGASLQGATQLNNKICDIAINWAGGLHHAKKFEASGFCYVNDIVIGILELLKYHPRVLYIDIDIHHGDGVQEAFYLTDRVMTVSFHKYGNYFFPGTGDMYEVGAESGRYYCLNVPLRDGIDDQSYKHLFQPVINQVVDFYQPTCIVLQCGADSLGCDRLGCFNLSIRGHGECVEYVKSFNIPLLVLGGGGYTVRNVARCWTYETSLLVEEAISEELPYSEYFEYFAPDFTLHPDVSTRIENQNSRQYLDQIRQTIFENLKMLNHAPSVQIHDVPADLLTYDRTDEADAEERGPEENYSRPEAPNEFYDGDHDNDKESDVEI
T1 sequence (Q13547 whole entry, looked up): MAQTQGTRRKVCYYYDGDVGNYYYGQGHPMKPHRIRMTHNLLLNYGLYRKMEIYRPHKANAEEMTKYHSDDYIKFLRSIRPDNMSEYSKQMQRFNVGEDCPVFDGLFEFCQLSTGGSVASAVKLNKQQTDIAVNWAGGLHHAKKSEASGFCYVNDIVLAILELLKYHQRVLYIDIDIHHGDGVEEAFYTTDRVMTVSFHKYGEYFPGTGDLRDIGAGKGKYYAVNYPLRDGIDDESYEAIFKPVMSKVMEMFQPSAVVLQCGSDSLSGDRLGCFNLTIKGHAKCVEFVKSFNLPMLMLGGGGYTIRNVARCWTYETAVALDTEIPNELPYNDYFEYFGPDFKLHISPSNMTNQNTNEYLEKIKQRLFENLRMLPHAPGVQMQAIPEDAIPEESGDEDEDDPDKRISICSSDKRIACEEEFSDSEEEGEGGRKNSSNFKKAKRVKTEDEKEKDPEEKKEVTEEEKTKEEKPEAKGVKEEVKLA
T1 sequence (Q92769 whole entry, looked up): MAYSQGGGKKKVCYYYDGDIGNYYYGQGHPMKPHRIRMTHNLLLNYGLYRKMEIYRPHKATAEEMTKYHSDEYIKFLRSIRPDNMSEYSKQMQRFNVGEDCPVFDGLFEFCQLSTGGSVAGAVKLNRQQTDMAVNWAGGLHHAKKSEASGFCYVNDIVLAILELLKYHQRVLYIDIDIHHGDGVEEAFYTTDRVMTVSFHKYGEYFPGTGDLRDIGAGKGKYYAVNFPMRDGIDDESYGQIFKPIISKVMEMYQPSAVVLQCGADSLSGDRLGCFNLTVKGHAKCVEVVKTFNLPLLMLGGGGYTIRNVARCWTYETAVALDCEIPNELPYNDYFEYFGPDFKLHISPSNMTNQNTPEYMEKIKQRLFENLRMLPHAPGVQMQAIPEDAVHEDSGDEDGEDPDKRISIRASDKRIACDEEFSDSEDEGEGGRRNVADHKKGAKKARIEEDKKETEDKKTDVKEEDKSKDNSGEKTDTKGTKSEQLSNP
T1 sequence (Q9BY41 whole entry, looked up): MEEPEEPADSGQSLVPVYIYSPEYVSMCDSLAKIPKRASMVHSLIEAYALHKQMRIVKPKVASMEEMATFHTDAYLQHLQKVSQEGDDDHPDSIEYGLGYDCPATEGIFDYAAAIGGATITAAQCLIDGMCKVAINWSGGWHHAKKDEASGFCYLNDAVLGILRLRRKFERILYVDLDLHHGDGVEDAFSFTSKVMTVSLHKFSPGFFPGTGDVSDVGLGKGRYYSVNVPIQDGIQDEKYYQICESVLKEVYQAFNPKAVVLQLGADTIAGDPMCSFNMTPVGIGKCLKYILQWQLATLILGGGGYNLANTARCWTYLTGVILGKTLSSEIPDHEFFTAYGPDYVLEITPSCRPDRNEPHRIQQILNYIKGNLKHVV
Sequence of Protein deacetylase HDAC6 (Mus musculus) (Q9Z2V5 whole entry): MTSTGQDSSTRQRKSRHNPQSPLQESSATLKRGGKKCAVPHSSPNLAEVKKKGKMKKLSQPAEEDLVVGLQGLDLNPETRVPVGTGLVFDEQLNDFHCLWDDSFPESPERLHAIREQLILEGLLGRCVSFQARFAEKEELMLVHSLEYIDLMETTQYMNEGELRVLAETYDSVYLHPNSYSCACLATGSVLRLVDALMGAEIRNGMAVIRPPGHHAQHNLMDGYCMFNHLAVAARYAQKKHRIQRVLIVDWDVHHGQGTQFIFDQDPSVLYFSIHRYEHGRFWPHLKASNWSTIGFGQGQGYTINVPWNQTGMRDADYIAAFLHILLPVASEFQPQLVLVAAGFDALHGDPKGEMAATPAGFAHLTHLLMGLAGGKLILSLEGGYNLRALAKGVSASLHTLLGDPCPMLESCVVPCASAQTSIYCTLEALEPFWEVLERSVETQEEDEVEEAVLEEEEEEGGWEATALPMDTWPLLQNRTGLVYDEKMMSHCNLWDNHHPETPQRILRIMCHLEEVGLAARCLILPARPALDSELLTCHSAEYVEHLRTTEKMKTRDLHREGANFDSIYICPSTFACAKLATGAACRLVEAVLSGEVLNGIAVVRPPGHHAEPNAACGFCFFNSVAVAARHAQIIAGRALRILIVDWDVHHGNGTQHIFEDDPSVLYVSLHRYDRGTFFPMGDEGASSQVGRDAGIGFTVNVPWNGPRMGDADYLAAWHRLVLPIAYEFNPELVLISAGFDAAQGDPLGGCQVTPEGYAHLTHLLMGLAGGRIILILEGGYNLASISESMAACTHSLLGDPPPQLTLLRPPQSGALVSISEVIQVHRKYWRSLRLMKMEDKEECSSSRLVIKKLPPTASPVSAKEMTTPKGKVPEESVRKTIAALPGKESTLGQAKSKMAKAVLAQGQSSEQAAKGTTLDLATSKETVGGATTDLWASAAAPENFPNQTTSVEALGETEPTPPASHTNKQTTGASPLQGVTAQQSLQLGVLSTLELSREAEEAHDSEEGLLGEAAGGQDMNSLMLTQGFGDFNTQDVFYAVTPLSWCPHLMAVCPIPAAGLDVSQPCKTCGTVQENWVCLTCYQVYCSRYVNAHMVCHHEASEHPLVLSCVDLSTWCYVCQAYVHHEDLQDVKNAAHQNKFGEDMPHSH

In general, LD50 refers to the dose expected to kill half of the subjects tested. One may read the MTD as the highest dose tested that stayed within the study's limit of toxicity. A word on the TGI: it is how far tumour growth fell short of that in controls. As to `O=C(CCCSC[C@H](NC(=O)c1ccccc1)C(=O)Nc1ccccc1)NO`, the inhibition in vivo at 50 mg/kg in data set [1] is 75%. Moreover, in data set [2], the inhibition in vivo at 25 mg/kg amounted to 62%. Also, the inhibition result in [3], in [4], in data set [18] and in [19] was “Active” each time. The inhibition entry in [5] is “Dose-dependent effect”. The outcome in data set [6], in [7] and in [9] was Active. Besides, the Activity entry in [8] was “Dose-dependent effect”; in [10], “Non-Toxic”; in data set [11], “Non-Toxic”; in data set [14], “Dose-dependent effect”; in data set [15], “Non-Toxic”; in data set [17], “Non-Toxic”. Besides, the LD50 in data set [12] is more than 2000 mg/kg. Further, the maximal tolerated dose (MTD) in data set [13] came out at 100 mg/kg. Also, the tumour growth inhibition (TGI) in [16] is on record as 72%.

(Values after ChEMBL document CHEMBL5055644, “Cysteine derivatives as acetyl lysine mimics to inhibit zinc-dependent histone deacetylases for treating cancer” (Eur J Med Chem, 2021).)
